From patent US12522596B2, “Compounds as GLP-1R agonists” (Terns Pharmaceuticals, Inc., priority 2021, dated 2026) come the findings set out here.

For series [1], the target named is T1, human GLP-1R receptor (Homo sapiens, UniProt P43220).
T1 construct: expressed in transfected cells
The series is described as follows: GLP-1R low expression cell assay (cAMP TR-FRET, CHO-K1_hGLP-1Rlow_clone10). Format: cell-based. To be noted: CHO-K1_hGLP-1Rlow_clone10 cells. As to the method: Stable cell lines expressing high and low GLP-1R surface expression were generated in CHO-K1 cells transfected (Fugene 6) with a puromycin selectable DNA plasmid encoding human GLP-1R receptor (accession number: NM_002062.5) under control of an EF1A promoter. Transfected cells were seeded into 24-well plates (9,000 cells/well) containing complete medium and incubated in a humidified incubator at 37° C. with 5% carbon dioxide. After overnight incubation, medium was replaced with complete medium supplemented with puromycin (6 μg/mL) and refreshed every 2-3 days to select for stably transfected cells. Individual pools of selected cells were expanded prior to analysis for responsiveness to GLP-1 control peptide using a TR-FRET assay to detect cAMP (LANCE Ultra CAMP Assay, Perkin Elmer). Briefly, cells were collected in Versene solution, plated in 384-well plates (1,000 cells/well) and combined with serially diluted GLP-1R control peptide (10 nL) using an acoustic dispenser (ECHO). Plates were incubated for 30 minutes at 25° C. prior to the addition of EU-CAMP tracer (5 μL) and Ulight-anti-cAMP (5 μL) reagents to each well, followed by 15 minutes incubation at 25° C. TR-FRET signal was detected using an En Vision Multimode Plate Reader (excitation=320 nm; emission=615 and 655 nm). Dose-response curves were used to generate EC50 values as a measure of responsiveness to the GLP-1R control peptide. Selected cell lines were monitored for responsiveness over multiple passages to ensure stability. […] Briefly, GLP-1R expression was analyzed by flow cytometry using a fluorescein-labeled Exendin-4 peptide fluorescent probe (FLEX). Cells were harvested in Versene solution and washed 3-times with PBS+0.5% BSA before incubation with FLEX reagent (10 μM) for 2 hours at room temperature. After incubation, cells were washed 3-times in PBS+0.5% BSA before final resuspension in PBS prior to analysis by flow cytometry to measure FLEX mean fluorescence intensity (MFI) as a measure of GLP-1R expression on the cell surface.
For compound testing in the CHO-K1_hGLP-1Rlow_clone10 cell line, cells were seeded in 384-well plates (1,000 cells/well). Test compounds were serially diluted in DMSO (10-point, 3-fold dilution), added to wells using an ECHO dispenser (10 nL/well) and plates were centrifuged for 1 min and agitated for 2 min at room temperature prior to 30-minute incubation at 25° C. After incubation, Eu-CAMP (5 μL) and Ulight-anti-cAMP (5 μL) reagents were added to each well, followed by centrifugation for 1 minute, agitation for 2 minutes at room temperature, and final incubation of the plates at 25° C. for 15 minutes. Plates were read using an EnVision microplate reader (excitation=320 nm; emission=615 and 655 nm). Dose-response curves were generated from duplicate wells based on percent activation calculated relative to a control GLP-1 peptide agonist that was run in parallel. EC50 values were determined by fitting percent activation as a function of compound concentration using the Hill equation (XLfit).
Stable cell lines expressing high and low GLP-1R surface expression were generated in CHO-K1 cells transfected (Fugene 6) with a puromycin selectable DNA plasmid encoding human GLP-1R receptor (accession number: NM_002062.5) under control of an EF1A promoter. Transfected cells were seeded into 24-well plates (9,000 cells/well) containing complete medium and incubated in a humidified incubator at 37° C. with 5% carbon dioxide. After overnight incubation, medium was replaced with complete medium supplemented with puromycin (6 μg/mL) and refreshed every 2-3 days to select for stably transfected cells. Individual pools of selected cells were expanded prior to analysis for responsiveness to GLP-1 control peptide using a TR-FRET assay to detect cAMP (LANCE Ultra CAMP Assay, Perkin Elmer).
On the technique in general: TR-FRET usually uses a lanthanide donor and a delayed reading to cut background.

The nature of series [2]: Rat pharmacokinetics, oral dosing. The format is in vivo, Sprague-Dawley rats. To be noted: for Cmax / AUC(0-t) / half-life: male, Sprague-Dawley, rat plasma. As to the method: Oral dosing: Compounds were formulated at 0.3 mg/mL or 0.6 mg/mL in a solution comprising 5% polyethylene glycol 400 and 95% (12% (w/v) sulfobutyl-β-cyclodextrin in water) (v/v). Formulated compounds were administered to male, 7-11 week old Sprague-Dawley rats by oral gavage at a dose of 3 mg/kg.
Sample collection: Blood collections of about 0.2 mL per time point were performed from jugular vein or other suitable site of each animal, into pre-chilled commercial EDTA-K2 tubes and placed on wet ice until centrifugation. Blood samples were processed for plasma by centrifugation at approximately 4° C., 3,200 g for 10 min. Plasma was collected and transferred into pre-labeled 96 well plate or polypropylene tubes, quick frozen over dry ice and kept at −60° C. or lower until LC-MS/MS analysis.
Data analysis: Plasma concentration versus time data was plotted in graph and analyzed by non-compartmental approaches using the Phoenix WinNonlin 6.3 software program. Related PK parameters were calculated according to dosing route, e.g., CL, Vdss and C0 for intravenous administration, Cmax, Tmax or % F for extravascular administration, and T1/2, AUC(0-t), AUC(0-inf), MRT(0-t), MRT(0-inf) for all routes.

Series [3] in a line: Metabolic stability in rat hepatocytes. Format: in vitro ADME. The settings on record: cryopreserved hepatocytes, 1 μM. As to the method:
(§1) Test compounds were incubated in rat and human hepatocytes and stability was assessed from the substrate […] approach. Test compounds were dissolved in dimethyl sulfoxide (DMSO) to create a 10 mM Stock, and then further diluted to create a 1000× Working Stock of 1 mM with DMSO in 96-well plates for test compounds and the positive control (midazolam). Vials containing cryopreserved hepatocytes were removed from the liquid nitrogen tank and immediately immersed in a 37° C. water bath. The vials were shaken gently until the contents had thawed and were then immediately emptied into 48 mL of pre-warmed HT Medium in a 50 mL conical tube. Cells remaining in the vial were resuspended with 1.0 mL of pre-warmed HT Medium and added to the conical tube. The tube was capped and then gently inverted several times to resuspend the hepatocytes. The cell suspension was centrifuged at 50×g at room temperature for 5 minutes and the supernatant discarded. The cell pellet was loosened by gently swirling the centrifuge tube and was re-suspended in 4 mL of warm Dulbecco's Modified Eagle medium (DMEM). Cell density was determined by a cell counter by Nexcelom, and DMEM medium was added to obtain a target density of 1×10^6 cells/mL. The assay was carried out in 96-well microtiter plates. Test Compounds were incubated at 1 μM with 1×10^6 cells/mL hepatocytes in DMEM for 0, 30, 60, 120 and 240 minutes. The incubation was carried out with gentle shaking at 37° C. under a humid atmosphere of 95% air/5% CO2. The volume of the incubation mixture was 37 μL with a final 0.1% DMSO. At each of the time points, the incubation was stopped by adding 150 μL quenching solution (100% acetonitrile, 0.1% formic acid containing bucetin as an internal standard for positive ESI mode). Subsequently, the mixtures were vortexed for 20 min and centrifuged at 4,000 RPM at 10° C. The supernatant (80 μL) was transferred to a clean 96-well plate and analyzed by LC-MS/MS. Midazolam at 1 μM with a final 0.1% DMSO was included as a positive control to verify assay performance. The percent parent remaining, intrinsic and predicted hepatic clearance and t1/2 were calculated. All samples were analyzed by LC-MS/MS using an AB Sciex API 4000 instrument, coupled to a Shimadzu LC-20AD LC Pump system. Separation was achieved using a Waters Atlantis T3 dC18 reverse phase HPLC column (20 mm×2.1 mm) at a flow rate of 0.5 mL/min. The mobile phase consisted of 0.1% formic acid in water (solvent A) and 0.1% formic acid in 100% acetonitrile (solvent B). Elution conditions are detailed below.
(§2) The ion optics of each test compound were optimized for their declustering potential (DP), […] (CE), collision-cell exit potential (CXP) and used in a selected ion monitoring experiment in the positive ion mode. The peak area ratio of each test compound to internal standard was then evaluated for stability. The extent of metabolism was calculated based on the disappearance of the test compound, compared to its initial concentration. The initial rates of clearance of the test compound were calculated using the linear regression plot of semi-log % remaining of the compound versus time. The elimination rate constant (k) of the linear regression plot was then used to determine t1/2 and the intrinsic clearance (CLint) using the following formula, where Chepatocyte (million cells/mL) is the cell density of the incubation:
(§3) The predicted hepatic clearance (CLhep) was calculated using the well stirred method with the following formula with CLint(in vivo) normalized based on liver weight: […]
(§4) The relevant physiological parameters of liver weight, blood flow, and hepatocellularity for various species are listed below: […]

Series [4] relates to rat hepatocytes. The series is described as follows: Metabolic stability in rat hepatocytes. The format is in vitro ADME. As to the method:
as §1, §2, §3, §4

Series [5] can be described thus: Metabolic stability in human hepatocytes. Format: in vitro ADME. The settings on record: cryopreserved hepatocytes; human hepatocytes, 1 μM. As for the experimental part:
as §1, §2, §3, §4

Setting [6] is: rat, plasma, po, 3 mg/kg, 3 mg/kg PO (0.3 mg/mL).

Molecules are shown by their SMILES.

T1 sequence (P43220 24-463): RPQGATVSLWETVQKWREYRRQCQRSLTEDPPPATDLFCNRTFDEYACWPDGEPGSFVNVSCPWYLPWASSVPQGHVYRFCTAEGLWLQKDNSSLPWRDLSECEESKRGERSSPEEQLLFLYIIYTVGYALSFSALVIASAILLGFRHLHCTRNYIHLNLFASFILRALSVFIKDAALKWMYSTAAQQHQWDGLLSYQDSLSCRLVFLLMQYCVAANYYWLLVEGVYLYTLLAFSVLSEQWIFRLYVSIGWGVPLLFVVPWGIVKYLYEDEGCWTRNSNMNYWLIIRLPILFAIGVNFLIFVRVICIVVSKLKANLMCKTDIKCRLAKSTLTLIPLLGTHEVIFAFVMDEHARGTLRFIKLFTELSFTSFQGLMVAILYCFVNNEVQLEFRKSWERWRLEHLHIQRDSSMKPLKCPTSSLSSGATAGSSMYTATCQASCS

What is called EC50 is the concentration giving half of the maximal effect. Low values mean an effect from little substance, high ones a need for much substance. In series [1], `N#Cc1cc(F)c2nc(COc3cccc(C4CCN(Cc5nc6ccc(C(=O)O)cc6n5Cc5scnc5Br)CC4)n3)sc2c1` [Compound 6] yielded an EC50 of 135 nM.
Same read-out and setting: next, `C=Cc1ncsc1Cn1c(CN2CCC(c3cccc(OCc4nc5c(F)cc(C#N)cc5s4)n3)CC2)nc2ccc(C(=O)O)cc21` [Compound 7]: 90.6 nM; `CCc1ncsc1Cn1c(CN2CCC(c3cccc(OCc4nc5c(F)cc(C#N)cc5s4)n3)CC2)nc2ccc(C(=O)O)cc21` [Compound 8]: 360 nM; `N#Cc1ccc(COc2ccnc([C@@]34CCN(Cc5nc6ccc(C(=O)O)cc6n5Cc5cncs5)C[C@@H]3C4)n2)c(F)c1` [Compound 19]: 161 nM.
A word on the Cmax: it is the peak of the concentration-time curve. The term AUC(0-t) denotes exposure summed from dosing to a finite time, without extrapolation to infinity. In general, half-life refers to the time needed for the level to fall by half in the phase considered. Read a low half-life as fast loss. Regarding `O=C(O)c1ccc2nc(CN3CC[C@@]4(c5cccc(OCc6ccc(Cl)cc6F)n5)C[C@H]4C3)n(Cc3cncs3)c2c1` [Compound 25], in series [1], the EC50 was 24.4 nM. In addition, the Cmax in series [2] (rat, plasma, po, 3 mg/kg, 3 mg/kg PO (0.6 mg/mL)) is 412 ± 98.3 ng/mL. For the same compound, in series [2] (3 mg/kg PO (0.6 mg/mL)), the AUC(0-t) was 558 ± 100 ng·h/mL and the half-life is 1.52 ± 0.21 h. For the same compound, the “PK properties relative to Reference Compound A” value in series [2] (rat, dosed orally) is given as “similarly improved PK properties”.
Turning to `O=C(O)c1ccc2nc(CN3CC[C@@]4(c5nccc(OCc6ccc(Cl)cc6F)n5)C[C@H]4C3)n(Cc3cncs3)c2c1` [Compound 22], the EC50 in series [1] turned out to be 87.5 nM.
In general, CLint scaled refers to a measure of how fast metabolising enzymes remove a compound, apart from limits set by blood flow. In turn, `[2H]C([2H])(Oc1cccc(C2CCN(Cc3nc4ccc(C(=O)O)cc4n3Cc3cncs3)CC2)n1)c1ccc(Cl)cc1F` [Compound 26] gave a 50% effective concentration (EC50) in series [1] of 4 nM. In addition, in series [3], the CLint scaled at 1 μM came out at 24.1 ± 0.83 mL/min/kg and the half-life at 1 μM worked out at 2.3 ± 0.0792 h. In addition, in series [4], the “CLint relative to reference standard” value is recorded as “significantly lower” and the “Half-life relative to reference” value was “significantly higher”. In addition, in series [5], the CLint scaled at 1 μM is 20.9 ± 0.98 mL/min/kg and the half-life at 1 μM was determined as 1.92 ± 0.0905 h.
Consider `N#Cc1cc(F)c2nc(COc3cccc(C4CCN(Cc5nc6ccc(C(=O)O)cc6n5Cc5cncs5)CC4)n3)sc2c1` [Compound 5], for which a half-maximal effect in series [1] (EC50) was put at 5.4 nM. This counts as single-digit nanomolar.
In series [1], `CCc1scnc1Cn1c(CN2CCC(c3cccc(OCc4nc5c(F)cc(C#N)cc5s4)n3)CC2)nc2ccc(C(=O)O)cc21` [Compound 13] returned an EC50 of 724 nM. Further, in series [4], the “Half-life relative to reference” value is listed as “significantly lower”.
On to `N#Cc1cc(F)c2nc(COc3cccc(C4CCN(Cc5nc6ccc(C(=O)O)cc6n5Cc5ccns5)CC4)n3)sc2c1` [Compound 9], for which the response in series [1] was half-maximal at 16.6 nM (EC50). This counts as double-digit nanomolar.
Take `Cc1scnc1Cn1c(CN2CCC(c3cccc(OCc4nc5c(F)cc(C#N)cc5s4)n3)CC2)nc2ccc(C(=O)O)cc21` [Compound 11]: the concentration for a half-maximal effect (EC50) in series [1] was 292 nM.
Turning to `N#Cc1cc(F)c2c(c1)CCN(c1cccc(C3CCN(Cc4nc5ccc(C(=O)O)cc5n4Cc4cncs4)CC3)n1)C2` [Compound 3], the midpoint of the response in series [1], the EC50, lay at 44.2 nM. In series [2] (setting [6]), the AUC(0-t) is 116 ± 23.2 ng·h/mL, the Cmax amounted to 79.8 ± 24.4 ng/mL and the half-life was 1.1 ± 0.29 h.
As for `O=C(O)c1ccc2nc(CN3CC[C@]4(c5cccc(OCc6ccc(Cl)cc6F)n5)C[C@@H]4C3)n(Cc3cncs3)c2c1` [Compound 24], in series [1], the EC50 was 15.1 nM.
Turning to `N#Cc1ccc(COc2cccc(C3CCN(Cc4nc5ccc(C(=O)O)cc5n4Cc4nccs4)CC3)n2)c(F)c1` [Compound 1], the EC50 in series [1] came to 50.1 nM.
In series [1], `N#Cc1ccc(COc2cccc(C3CCN(Cc4nc5ccc(C(=O)O)cc5n4Cc4scnc4Cl)CC3)n2)c(F)c1` [Compound 15] returned a half-maximal effective concentration (EC50) of 25.8 nM.
On to `COc1ccsc1Cn1c(CN2CCC(c3cccc(OCc4nc5c(F)cc(C#N)cc5s4)n3)CC2)nc2ccc(C(=O)O)cc21` [Compound 10], for which the EC50 in series [1] was 393 nM.
The compound `N#Cc1ccc(COc2ccnc([C@]34CCN(Cc5nc6ccc(C(=O)O)cc6n5Cc5cncs5)C[C@H]3C4)n2)c(F)c1` [Compound 18] yielded an EC50 in series [1] of 9.9 nM.
Compound `O=C(O)c1ccc2nc(CN3CC[C@]4(c5nccc(OCc6ccc(Cl)cc6F)n5)C[C@@H]4C3)n(Cc3cncs3)c2c1` [Compound 21] showed an EC50 in series [1] of 6.6 nM.
